Test results published in ChEMBL document CHEMBL1938328, “A review on coumarins as acetylcholinesterase inhibitors for Alzheimer's disease” (Bioorg Med Chem, 2012).
Where a name gives a salt, the structure may show the parent alone.

Key:
Acetylcholinesterase [1] = biological target: Acetylcholinesterase (Homo sapiens, UniProt P22303); test: Inhibition of AChE
[2] = Selectivity ratio of IC50 for AChE to IC50 for BChE
Acetylcholinesterase [3] = biological target: T1, Acetylcholinesterase (Rattus norvegicus, UniProt P37136); test: Inhibition of AChE in rat brain cortical homogenate; assay type: tissue-based
T1 sequence (P37136 whole entry): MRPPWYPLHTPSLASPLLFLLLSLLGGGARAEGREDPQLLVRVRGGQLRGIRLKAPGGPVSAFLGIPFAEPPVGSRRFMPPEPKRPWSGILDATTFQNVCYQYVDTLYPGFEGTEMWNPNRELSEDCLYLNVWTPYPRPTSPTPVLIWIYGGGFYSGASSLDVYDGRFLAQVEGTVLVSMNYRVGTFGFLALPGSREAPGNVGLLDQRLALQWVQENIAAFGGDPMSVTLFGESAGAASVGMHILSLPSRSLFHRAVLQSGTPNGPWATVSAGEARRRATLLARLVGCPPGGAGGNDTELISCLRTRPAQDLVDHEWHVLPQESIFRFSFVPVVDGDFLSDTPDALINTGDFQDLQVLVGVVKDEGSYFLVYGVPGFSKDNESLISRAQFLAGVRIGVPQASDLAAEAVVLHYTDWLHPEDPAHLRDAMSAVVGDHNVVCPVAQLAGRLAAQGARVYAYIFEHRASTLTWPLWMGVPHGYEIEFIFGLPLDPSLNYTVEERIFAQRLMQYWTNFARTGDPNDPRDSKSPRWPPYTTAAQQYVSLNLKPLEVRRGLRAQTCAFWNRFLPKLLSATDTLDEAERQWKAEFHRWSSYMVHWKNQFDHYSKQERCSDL

Acetylcholinesterase (Homo sapiens, UniProt P22303), sequence (P22303 whole entry): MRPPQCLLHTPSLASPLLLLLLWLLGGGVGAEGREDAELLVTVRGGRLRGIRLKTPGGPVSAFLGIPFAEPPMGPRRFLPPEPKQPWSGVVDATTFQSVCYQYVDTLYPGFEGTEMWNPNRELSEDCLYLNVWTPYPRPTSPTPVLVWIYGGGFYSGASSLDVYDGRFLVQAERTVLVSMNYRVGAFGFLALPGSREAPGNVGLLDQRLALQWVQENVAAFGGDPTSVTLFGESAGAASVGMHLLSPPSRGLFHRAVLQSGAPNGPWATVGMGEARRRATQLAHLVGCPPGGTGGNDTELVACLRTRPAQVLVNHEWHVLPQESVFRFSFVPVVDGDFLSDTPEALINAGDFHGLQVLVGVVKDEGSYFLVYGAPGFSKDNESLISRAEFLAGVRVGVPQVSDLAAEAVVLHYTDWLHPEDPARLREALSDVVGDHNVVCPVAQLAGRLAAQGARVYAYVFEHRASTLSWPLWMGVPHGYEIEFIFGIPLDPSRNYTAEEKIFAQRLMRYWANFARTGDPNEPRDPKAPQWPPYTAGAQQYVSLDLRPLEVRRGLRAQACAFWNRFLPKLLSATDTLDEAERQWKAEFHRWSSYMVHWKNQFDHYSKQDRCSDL

Row | Compound | IC50 (Acetylcholinesterase [1]) | Ratio IC50 [2] | IC50 (Acetylcholinesterase [3])
1 | COc1cc2oc(=O)c(OCCCCOc3cc(O)cc(N(C)C)c3)c(C)c2cc1OC | 0.236 nM | > 300000 | –
2 | COc1cc2oc(=O)c(C)c(C)c2cc1OCCCN1CCN(c2ccccc2OC)CC1 [ENSACULIN HYDROCHLORIDE] | – | – | 360 nM
3 | COc1cc2c(C)c(OC)c(=O)oc2cc1OCCCCOc1cc(O)cc(N(C)C)c1 | 275 nM | – | –
4 | COc1ccccc1NCc1cc(=O)oc2cc3oc4ccccc4c3cc12 | 190 nM | – | –
